Data published in paper PMC3988085, “In Vitro Metabolism of 20(R)-25-Methoxyl-Dammarane-3, 12, 20-Triol from Panax notoginseng in Human, Monkey, Dog, Rat, and Mouse Liver Microsomes” (PLoS ONE, 2014).
Blank lines part the entries; values can stand above or below the molecule they belong to.

What was measured:
CYP3A4 = CYP3A4 (Homo sapiens, UniProt P08684); assay: Inhibition of CYP3A4 catalytic activity by 25(R)-OCH3-PPD; type: in vitro ADME
[1] = tested on: human liver microsomes (HLM); assay: Metabolite formation in human liver microsomes, 60 min; type: in vitro ADME; conditions: HLM 1 mg/ml, 50 µM 25(R)-OCH3-PPD, NADPH
Method: (§1) 25(R)-OCH3-PPD were incubated in hepatic microsomes to examine the potential P450-mediated metabolism. Stock solutions of 2 mM 25(R)-OCH3-PPD was prepared in methanol. The final methanol concentration in the incubation was 2.5% (v/v). The liver microsomes were carefully thawed on ice before the experiment.
(§2) For NADPH dependent oxidative metabolism study, the reaction media contained 1 mg/ml of microsomal proteins, 10 mM G-6-P, 10 mM MgCl2, 1 U/ml G-6-PDH, 50 µM concentration of 25(R)-OCH3-PPD in potassium phosphate buffer (pH 7.4; 0.1 M) in a total volume of 200 µl. Negative control incubations containing no NADPH-regenerating system were conducted. All incubations were performed at 37°C in a shaking water bath for 60 min.
(§3) After 5 min preincubation at 37°C, the incubation reactions were initiated with the addition of microsome proteins. After undergoing incubation for 60 min, the reactions were terminated with an equal volume of ice-cold acetonitrile and 10 µl diazepam (5 µg/ml, internal standard) was added. This sample was vortex-mixed and centrifuged at 14,000 g for 5 min. […] The residue was reconstituted in 100 µl of methanol with 0.1% formic acid, centrifuged 10 min at 18000 rpm and then an aliquot 5 µL of the supernatant was directly injected onto the HPLC-MS system for quanlitative or quantitative analysis.

[2] = tested on: cynomolgus monkey liver microsomes (CyLM); assay: Metabolite formation in monkey liver microsomes, 60 min; type: in vitro ADME; conditions: CyLM 1 mg/ml, 50 µM 25(R)-OCH3-PPD, NADPH
Method: as §1, §2, §3

[3] = tested on: dog liver microsomes (DLM); assay: Metabolite formation in dog liver microsomes, 60 min; type: in vitro ADME, beagles; conditions: DLM 1 mg/ml, 50 µM 25(R)-OCH3-PPD, NADPH
Method: as §1, §2, §3

[4] = tested on: rat liver microsomes (RLM); assay: Metabolite formation in rat liver microsomes, 60 min; type: in vitro ADME, Sprague-Dawley rats; conditions: RLM 1 mg/ml, 50 µM 25(R)-OCH3-PPD, NADPH
Method: as §1, §2, §3

[5] = tested on: mouse liver microsomes (MLM); assay: Metabolite formation in mouse liver microsomes, 60 min; type: in vitro ADME, CD-1 mice; conditions: MLM 1 mg/ml, 50 µM 25(R)-OCH3-PPD, NADPH
Method: as §1, §2, §3

CYP3A = assay: Chemical inhibition study in human hepatic microsomes (ketoconazole); type: in vitro ADME
Method: The chemical inhibition study was performed by adding each of the specific inhibitors of P450 enzymes into the incubation of 25(R)-OCH3-PPD (3 or 10 µM) in 0.25 mg/ml HLM incubation systems containing an NADPH-regenerations system as described above. The chemical inhibitors and concentration were selected on the basis of previous reports and are as follows: α-naphthoflavone (10.0 µM) for CYP1A2, quercetin (10 µM) for CYP2C8, sulfaphenazole (10.0 µM) for CYP2C9, ticlopidine (5 µM) for CYP2C19, quinidine (10.0 µM) CYP2D6, diethyl dithiocarbamate (20 µM) for CYP2E1, and ketoconazole (0.1, 0.25, 0.5, 1 and 5 µM) for CYP3A.
The inhibitors were dissolved in dimethyl sulfoxide, and the final concentration of dimethyl sulfoxide in the incubation was 1% (v/v). The final incubation volume was 200 µl. Microsomes were preincubated for 5 min with a NADPH-regenerating system at 37°C, the reactions were initiated with the addition of 25(R)-OCH3-PPD and inhibitor. The reactions were terminated with an equal volume of ice-cold acetonitrile after 30 min of incubation. Parallel incubations without chemical inhibitors served as control. Samples were prepared as mentioned above to measure the concentration of parent and the metabolites by HPLC-MS/MS analysis.

[6] = rat, in vivo, 10 mg/kg; cited from earlier work

Sequence of CYP3A4 (P08684 whole entry): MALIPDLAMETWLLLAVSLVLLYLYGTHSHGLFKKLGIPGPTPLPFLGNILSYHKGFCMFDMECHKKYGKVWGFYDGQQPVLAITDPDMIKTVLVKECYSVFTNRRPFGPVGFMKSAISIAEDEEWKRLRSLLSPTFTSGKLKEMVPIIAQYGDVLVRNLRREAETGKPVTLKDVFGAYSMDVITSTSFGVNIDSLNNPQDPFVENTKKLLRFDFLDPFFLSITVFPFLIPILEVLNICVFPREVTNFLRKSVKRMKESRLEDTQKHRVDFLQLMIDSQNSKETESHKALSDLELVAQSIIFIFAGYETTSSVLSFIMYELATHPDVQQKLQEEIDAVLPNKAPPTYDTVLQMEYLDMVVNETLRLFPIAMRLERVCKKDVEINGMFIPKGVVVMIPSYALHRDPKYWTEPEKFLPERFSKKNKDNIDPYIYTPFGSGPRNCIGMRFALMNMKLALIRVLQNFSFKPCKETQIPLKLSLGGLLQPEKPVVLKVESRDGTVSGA

inhibition of the CYP3A4 catalytic activity (CYP3A4): NADPH and concentration-dependent
Structure (SMILES): COC(C)(C)CCC[C@@](C)(O)C1CC[C@]2(C)C1[C@H](O)CC1[C@@]3(C)CC[C@H](O)C(C)(C)C3CC[C@]12C (stereo partly drawn) [25(R)-OCH3-PPD, 20(R)-25-methoxyl-dammarane-3β, 12β, 20-triol]

relative amount of metabolite formed [1]: minor metabolite | relative amount of metabolite formed [2]: minor metabolite | relative amount of metabolite formed [3]: intermediate relative amount | relative amount of metabolite formed [4]: dominant metabolite | relative amount of metabolite formed [5]: dominant metabolite
Structure (SMILES): CC(C)(O)CCC[C@@](C)(O)C1CC[C@]2(C)C1[C@H](O)CC1[C@@]3(C)CC[C@H](O)C(C)(C)C3CC[C@]12C (stereo partly drawn) [Metabolite M1]

Structure (SMILES): CC(=O)N1CCN(c2ccc(OCC3COC(Cn4ccnc4)(c4ccc(Cl)cc4Cl)O3)cc2)CC1 (stereo not drawn) [ketoconazole]
effect on the oxidative metabolism of 25(R)-OCH3-PPD (CYP3A; HLM 0.25 mg/ml, 25(R)-OCH3-PPD 10 µM, 30 min): significant inhibitory effect | inhibition of formation of M5 (CYP3A; HLM, ketoconazole 0.1 µM): completely | effect on formation of M1 and M6 (CYP3A; HLM, ketoconazole 5 µM): inhibited | effect on formation of M2, M3, M4, M5, M7 (CYP3A; HLM, ketoconazole 0.1-5 µM, concentration dependent): inhibited | effect on formation of M1 and M6 (CYP3A; HLM, ketoconazole 0.1–1 µM): activated

Structure (SMILES): COC(C)(C)CCC[C@](C)(O)[C@H]1CC[C@]2(C)[C@@H]1[C@H](O)C[C@@H]1[C@@]3(C)CC[C@H](O)C(C)(C)[C@@H]3CC[C@]12C [25(S)-OCH3-PPD, 20(S)-25-methoxyl-dammarane-3beta, 12beta, 20-triol]
absolute bioavailability [6]: 19.7%
